# Measurements as given in US20130029970A1 (priority 2009, published 2013).
# Where two headings read alike, the source gives them in different places.
# Legend:
# [1] = test system: PBQ-induced writhing in the mouse; assay: Phenylbenzoquinone-induced (PBQ) writhing model
# [2] = test system: CFA induced inflammatory pain in the rat; assay: Complete Freund's Adjuvant (CFA) induced inflammatory pain model; assay type: in vivo
# Experimental: In this rat model of inflammatory pain, 100 uL of CFA diluted 1:1 with phosphate buffered saline was injected into the subplantar region of the right hind paw on Day 1. On day 3, test compounds were administered orally and rats were assessed for their reaction to a mechanical stimuli applied via an Analgesy® meter. Injection of CFA increased the rats' reactivity to painful stimuli and this was reflected in a decrease in the amount of pressure they could tolerate prior to withdrawing their paw from the apparatus (hyperalgesia). An anti-hyperalgesic activity of the test compound was denoted by an increase in the amount of pressure they can tolerate prior to withdrawing their paw from the apparatus. The mean±SEM for each treatment group was determined and a Dunnett test was applied for comparison between vehicle and treated groups. Differences were considered significant at P<0.05. (see Bertorelli et al. 1999 Brit Journ Pharmacol 128:1252).
# human CB2 (hCB2) = target: T1, human CB2 (hCB2) (Homo sapiens, UniProt P34972); assay: 35S GTPγS binding assay, hCB2 agonist; assay type: biochemical
# T1 construct: (cDNA clone) CNR0200000
# Procedure, shortened: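 Membranes (5 μg) from cells transfected with hCB2 cDNA in pcDNA3.1+ incubated with SPA beads, 0.1 nM [35S]GTPγS and 20 uM GDP in 50 mM HEPES pH 7.4, 100 mM NaCl, 5 mM MgCl2, 0.001% saponin, ± test compound. Incubation 90 min at room temperature; bound label read by scintillation counting.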
# human CB1 (hCB1) = target: T2, human CB1 (hCB1) (Homo sapiens, UniProt P21554); assay: 35S GTPγS binding assay, hCB1 agonist; assay type: biochemical; conditions: GTPγS agonist, HEK-293 membranes; read-out: hCB1 EC50 (GTPyS ag)
# T2 construct: (cDNA clone) CNR01L000
# Text: cDNA expression clones for human CB1 (hCB1, Genbank Accession No. AY225225) and human CB2 (hCB2, Genbank Accession No. AY242132) expressed in vector pcDNA3.1+ were purchased from UMR cDNA Resource Center, Rolla, Mo. (Clone ID CNR01L000 for hCB1; CNR0200000 for hCB2).
# Stable, HEK-293-derived cell lines that recombinantly express hCBI or hCB2 were established. In brief, the clone hCB1 (CNR IL) or hCB2 (CNR2) was transfected into human embryonic kidney cells (HEK-293) using Lipofectamine 2000 (Gibco, Cat#11668-019) according to the manufacturer's protocol. Transfected clones were isolated by single colony purification and clones were screened for receptor expression using a whole cell, ^3H—CP 55,940 radioligand binding assay. HEK-293 stable cells were maintained in Dulbecco's modified Eagles medium (DMEM) containing 10% fetal bovine serum, 2 mM L-glutamine and 0.5 mg/mL G-418.
# Membranes were isolated from transfected cells as follows. Monolayers of cultured cells were washed twice with phosphate-buffered saline (PBS). Cells were scraped into 20 mM HEPES, pH 7.4, 10 mM EDTA containing complete cocktail protease inhibitors (Roche, Catalog #11 697 498 001) and were homogenized by an electric-powered mechanical probe homogenizer (Omni GLH; probe G7-195S) for 40 seconds at 7000 rpm. Homogenates were centrifuged 10 minutes at 1000×g at 4° C. The supernatant was collected and was centrifuged for 1 hour at 40,000×g. The supernatant was then decanted and the resulting pellet was re-suspended in 20 mM HEPES, pH 7.4, 5 mM MgCl2, 1 mM EDTA, 10% sucrose with complete cocktail protease inhibitors. Protein concentration of membrane suspensions were measured by Bradford Protein Assay using bovine serum albumin as the standard (BioRad catalog #500-0006). Protein concentrations of membrane suspensions were adjusted with the final buffer in the range of 5 to 10 mg/mL and were stored at −80° C. until further use.
# Functional assays which monitor G-protein coupled receptor or downstream cellular responses can be used to characterize potential CB1 receptor and/or CB2 receptor agonist or antagonist activities. Direct activation (or inhibition of activation) can be monitored using a GTPγS assay (membrane-based assay) or cAMP assay (whole cell-based assay).
# ^35S GTPγS binding assays were performed by incubating recombinant cell membranes prepared above (5 μg) in the presence of scintillation proximity assay beads (SPA beads, Catalog #RPNQ0252 GE Healthcare, Buckinghamshire, England) in GTPγS binding buffer [50 mM HEPES (pH 7.4), 100 mM NaCl, 5 mM MgCl2, 0.001% saponin (Sigma catalog #S4521)] supplemented with 20 uM GDP (Sigma catalog #G7127) in the presence or absence of test compound. The reaction was carried out in 96-well microplates with 0.1 nM [^35S]GTPγS (specific activity=1250 Ci/mmol; Perkin Elmer catalog #NEG030X250UC) in a final volume of 100 uL. After a 90 min room temperature incubation, the reaction was analyzed using a scintillation counter (Perkin Elmer Microbeta instrument). Binding data were analyzed using GraphPad Prism.
# human CB1 receptors = target: T3, human CB1 receptors (Homo sapiens, UniProt P21554); assay: cAMP assay in HEK-293 cells, hCB1 agonist; assay type: cell-based; conditions: inhibition of forskolin-stimulated cAMP, HEK-293 cells
# T3 construct: (cDNA clone) CNR01L000
# Procedure, shortened: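 Stable hCB1 HEK-293 cells suspended in HBSS with 10 mM HEPES and 0.1% fatty acid-free BSA, incubated 30 min at 37° C. with compound plus forskolin (90 uM in the 3× compound solution). Lysed cAMP measured by enzyme-fragment kit; EC50 = 50% inhibition of forskolin-stimulated cAMP (forskolin maximum = 100%), sigmoidal fit.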
# [3] = target: T4, recombinant human cannabinoid receptor CB1 (Homo sapiens, UniProt P21554); assay: Cannabinoid receptor radioligand binding assay, [3H]-CP 55,940 displacement, hCB1
# T4 construct: (cDNA clone) CNR01L000
# Procedure, shortened: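 Membranes from HEK-293 cells stably expressing human CB1, 2-10 μg protein, incubated 90 min at room temperature with 0.5 nM [3H]-CP 55,940 in Tris-HCl pH 7.5, MgCl2, EDTA and 0.1% fatty-acid-free BSA. Bound radioactivity counted after rapid filtration; nonspecific binding defined with 1 μM unlabeled CP 55,940.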
# human CB2 receptors = target: T5, human CB2 receptors (Homo sapiens, UniProt P34972); assay: cAMP assay in HEK-293 cells, hCB2 agonist; assay type: cell-based
# T5 construct: (cDNA clone) CNR0200000
# Procedure, shortened: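 HEK-293 cells stably expressing human CB2, suspended at 1,500,000 cells/mL in HBSS with 10 mM HEPES and 0.1% fatty-acid-free BSA, exposed to test compound plus forskolin (90 uM in the 3× compound solution) for 30 min at 37° C.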
# [4] = target: T6, recombinant human cannabinoid receptor CB2 (Homo sapiens, UniProt P34972); assay: Cannabinoid receptor radioligand binding assay, [3H]-CP 55,940 displacement, hCB2
# T6 construct: (cDNA clone) CNR0200000
# Procedure, shortened: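 Membranes from hCB2-transfected cells, prepared by 1000×g then 40,000×g centrifugation, resuspended in 20 mM HEPES pH 7.4, 5 mM MgCl2, 1 mM EDTA, 10% sucrose.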
# T2 sequence (P21554 whole entry): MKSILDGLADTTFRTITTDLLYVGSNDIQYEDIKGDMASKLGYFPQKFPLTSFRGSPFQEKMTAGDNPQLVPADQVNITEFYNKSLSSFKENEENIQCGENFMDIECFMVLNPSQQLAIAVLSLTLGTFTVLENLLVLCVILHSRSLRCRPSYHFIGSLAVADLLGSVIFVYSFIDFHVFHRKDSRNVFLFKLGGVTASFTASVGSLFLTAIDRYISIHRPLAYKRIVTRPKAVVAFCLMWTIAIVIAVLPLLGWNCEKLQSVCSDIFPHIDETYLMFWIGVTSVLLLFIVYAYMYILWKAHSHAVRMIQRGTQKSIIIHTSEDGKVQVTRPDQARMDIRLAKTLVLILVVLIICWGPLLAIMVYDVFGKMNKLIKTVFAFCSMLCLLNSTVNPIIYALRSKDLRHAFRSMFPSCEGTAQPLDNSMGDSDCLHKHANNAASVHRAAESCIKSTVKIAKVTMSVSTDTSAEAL
# T4 sequence (P21554 whole entry): as above
# T1 sequence (P34972 whole entry): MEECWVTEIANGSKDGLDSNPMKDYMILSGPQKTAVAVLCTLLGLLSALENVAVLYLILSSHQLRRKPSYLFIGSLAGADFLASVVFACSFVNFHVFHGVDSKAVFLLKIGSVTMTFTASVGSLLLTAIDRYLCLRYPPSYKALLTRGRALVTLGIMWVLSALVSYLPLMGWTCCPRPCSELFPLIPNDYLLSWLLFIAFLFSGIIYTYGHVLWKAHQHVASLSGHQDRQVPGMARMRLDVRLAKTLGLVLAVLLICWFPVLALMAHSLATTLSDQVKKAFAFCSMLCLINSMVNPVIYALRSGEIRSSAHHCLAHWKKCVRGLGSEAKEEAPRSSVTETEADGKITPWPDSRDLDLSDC
# T5 sequence (P34972 whole entry): as above
# T3 sequence (P21554 whole entry): as the sequence (P21554 whole entry) above
# T6 sequence (P34972 whole entry): as the sequence (P34972 whole entry) above
smiles,measurement,setting,value
Cc1cc2cc(C(=O)c3cccc(Cl)c3Cl)sc2n1CCCNS(C)(=O)=O [Compound I-37],Number of Writhes,"[1]; Dose 30, PO",13.0 ± 1.65
Cc1cc2cc(C(=O)c3ccncn3)sc2n1CCN1CCOCC1 [Compound I-34],Number of Writhes,"[1]; Dose 30, IP",3.4 ± 0.97
COc1ccc(C(=O)c2cc3cc(C)n(CCCNS(C)(=O)=O)c3s2)cn1 [Compound I-109],Post CFA PWT (grams),[2]; 60 mg/kg PO,132 ± 12.3 grams
same,Number of Writhes,"[1]; Dose 3, PO",13.3 ± 2.3
same,Number of Writhes,"[1]; Dose 10, PO",8.93 ± 2.28
same,Number of Writhes,"[1]; Dose 30, PO",5.78 ± 1.75
"COc1ccc(C(=O)c2cc3cc(C)n(CCN4CC5CC4CO5)c3s2)cn1 (stereo not drawn) [Compound 169, (6-(2-(2-oxa-5-azabicyclo[2.2.1]heptan-5-yl)ethyl)-5-methyl-6H-thieno[2,3-b]pyrrol-2-yl)(6-methoxypyridin-3-yl)methanone]",EC50,"human CB2 (hCB2); GTPγS agonist, HEK-293 membranes, read-out: hCB2 EC50 (GTPyS ag)",1000 to 10000 nM
same,EC50,human CB1 (hCB1),> 10000 nM
same,"hCB1 EC50 (cAMP ag, nM)",human CB1 receptors,"NS (NS means “Not Significant,” which means less than 30% agonist activity when compared to the positive control.)"
same,IC50,[3],100 to 1000 nM
COc1ccc(C(=O)c2cc3cc(C)n(CCN4CCOCC4)c3s2)c(Cl)c1 [Compound I-70],Post CFA PWT (grams),[2]; 60 mg/kg PO,195.7 ± 16.4 grams
same,Number of Writhes,"[1]; Dose 30, PO",3.2 ± 1.57
CCOc1ccc(C(=O)c2cc3cc(C)n(CCN4CCOCC4)c3s2)c(F)c1 [Compound I-89],Post CFA PWT (grams),[2]; 60 mg/kg PO,178.7 ± 19.6 grams
COc1ccc(C(=O)c2cc3cc(C)n(CCN4CCOCC4)c3s2)cc1 [Compound I-36],Post CFA PWT (grams),[2]; 3 mg/kg PO,114.3 ± 11.8 grams
same,Post CFA PWT (grams),[2]; 10 mg/kg PO,90.7 ± 10.4 grams
same,Post CFA PWT (grams),[2]; 30 mg/kg PO,157.3 ± 11.4 grams
same,Post CFA PWT (grams),[2]; 56 mg/kg PO,191 ± 12.1 grams
same,Number of Writhes,"[1]; Dose 3, PO",14.5 ± 1.59
same,Number of Writhes,"[1]; Dose 10, PO",12.1 ± 2.8
same,Number of Writhes,"[1]; Dose 30, PO",7.3 ± 2.5
"COc1ccc(C(=O)c2cc3cc(C)n(CC4CCCCO4)c3s2)cn1 (stereo not drawn) [Compound 173, (6-methoxypyridin-3-yl)(5-methyl-6-((tetrahydro-2H-pyran-2-yl)methyl)-6H-thieno[2,3-b]pyrrol-2-yl)methanone]",EC50,human CB2 (hCB2),100 to 1000 nM
same,EC50,human CB1 (hCB1),1000 to 10000 nM
same,EC50,human CB2 receptors,< 100 nM
same,IC50,[3],< 100 nM
COc1ccc(C(=O)c2cc3cc(C)n(CCCNS(C)(=O)=O)c3s2)c(F)c1 [Compound I-87],Post CFA PWT (grams),[2]; 60 mg/kg PO,100.7 ± 11.3 grams
same,Number of Writhes,"[1]; Dose 30, PO",17.2 ± 2.5
Cc1cc2cc(C(=O)c3cccc(Cl)c3Cl)sc2n1S(=O)(=O)N(C)C [Compound I-41],Number of Writhes,"[1]; Dose 30, IP",5.91 ± 2.04
"COc1ccc(C(=O)c2cc3cc(C)n(CC4CCSCC4)c3s2)cn1 [Compound 175, (6-methoxypyridin-3-yl)(5-methyl-6-((tetrahydro-2H-thiopyran-4-yl)methyl)-6H-thieno[2,3-b]pyrrol-2-yl)methanone]",EC50,human CB2 (hCB2),< 100 nM
same,EC50,human CB1 (hCB1),100 to 1000 nM
same,EC50,human CB2 receptors,< 100 nM
same,IC50,[4],1000 to 10000 nM
same,IC50,[3],< 100 nM
CCS(=O)(=O)n1c(C)cc2cc(C(=O)c3cccnc3Cl)sc21 [Compound I-43],Number of Writhes,"[1]; Dose 30, PO",13.8 ± 1.88
